In US4758558A, “N-(substituted)-[7-(2-cyanoacetamido)cephalosporanic]amide derivatives having antibiotic utility” (priority 1982, dated 1988):

Columns and labels:
[1] = test system: Staphylococcus aureus IAM 1011; test: Antibacterial activity in vitro (MIC) against Staphylococcus aureus; format: cell-based; conditions: IAM1011, Mueller-Hinton agar, 18 to 24 hours, 37° C., read-out: MIC (minimum growth inhibiting concentration) against Staphylococcus aureus
Experimental: (§1) (c) Anti-bacterial activity (in vitro):
(§2) Minimum concentration of the present compound inhibiting the growth of the following bacteria was determined according to the standard procedures of Japan Society of Chemotherapy:
Staphylococcus aureus IAM 1011
(§3) Determination of the antibacterial activity of the present compound produced in Examples 1 to 18, respectively was carried out according to the standard procedures of Japan Society of Chemotherapy for finding MIC (the minimum concentration of a specimen to inhibit the growth of a species of bacteria).
(§4) A series of diluted solutions of each of the present compound were mixed with 9 times by weight of Mueller-Hinton's culture medium as the culture medium for determining the sensitivity of a bacterial species, and flat agar culture plates were prepared by using the thus obtained mixture.
(§5) Each of the liquids respectively containing one of the bacterial species shown in Table 2 was smeared onto each of the thus prepared flat agar culture plates with a platinum loop, in length of about 2 cm, and the thus treated plates were incubated for 18 to 24 hours at 37° C. Thereafter, by observing the growth state of each bacterial species on the cultured plates, the minimum concentration of each compound completely inhibiting the growth of each bacterial species was found.

Pseudomonas aeruginosa = test: Effect on intestinal bacteria: number of Pseudomonas aeruginosa in feces; format: in vivo, ICR mice; conditions: mouse, in vivo, po, 500 mg/kg/day
Experimental: (§6) Effects of the present compound on intestinal bacteria
(§7) Each of the present compounds respectively produced in Examples 1 to 18 was orally administered continuously for 2 days at a daily dose rate of 500 mg/kg body weight to each of five female ICR mice of each group after 6 weeks of their birth.
(§8) Each of the two fecal specimens respectively collected from each mouse before and after one day of the administration was diluted with 100 times by weight of an anaerobic diluent (a phosphoric acid buffer solution) and was ground in a mortar, and 0.1 ml of the thus ground material was smeared on each of the following culture media for the following bacteria, and the thus inoculated culture media were incubated under the following conditions. Thereafter, the number of the following bacteria in each of the thus cultured media was determined.
NAC agar 37° C., one day, […]

[2] = test system: a species of Lactobacillus; test: Effect on intestinal bacteria: number of a sp. of Lactobacillus in feces; format: in vivo, ICR mice; conditions: mouse, in vivo, po, 500 mg/kg/day
Experimental: (§9) (b) Effect on the intestinal bacterial colonies: […]
as §6, §7, §8
a species of Lactobacillus
LBS agar 37° C., 5 days, […]

a species of Bacteroides = test: Effect on intestinal bacteria: number of a sp. of Bacteroides in feces; format: in vivo, ICR mice; conditions: mouse, in vivo, po, 500 mg/kg/day
Experimental: as §9, §6, §7, §8
a species of Bacteroides
NBGT agar 37° C., 5 days, […]

Lactobacillus bifidus = test: Effect on intestinal bacteria: number of Lactobacillus bifidus in feces; format: in vivo, ICR mice; conditions: mouse, in vivo, po, 500 mg/kg/day
Experimental: as §9, §6, §7, §8
BS agar 37° C., 5 days, […]

Escherichia coli = test: Effect on intestinal bacteria: number of Escherichia coli in feces; format: in vivo, ICR mice; conditions: after oral administration for 2 days, 500 mg/kg/day, female ICR mice; before: 6.4
Experimental: (b) Effect on the intestinal bacterial colonies:
[…] Each portion of the two kinds of the feces was cultured at 25° C. or 37° C. in a variety of culture medium for one to five days to see the state of Escherichia coli, Pseudomonas aeruginosa, a Streptococcus species, a Lactobacillus species, Lactobacillus bifidus and a Bacteroides species in the culture medium.
as §6
Each of the two fecal […] by weight of an anaerobic diluent (a phosphoric acid buffer solution) and was ground in a mortar, and 0.1 ml of the thus ground material was smeared on each of the following culture media for the following bacteria, and the thus inoculated culture media were incubated under the following conditions. Thereafter, the number of the following bacteria in each of the thus cultured media was determined.

[3] = test system: Escherichia coli IFO 12734; test: Antibacterial activity in vitro (MIC) against Escherichia coli; format: cell-based; conditions: IFO12734, Mueller-Hinton agar, 18 to 24 hours, 37° C., read-out: MIC (minimum growth inhibiting concentration) against Escherichia coli
Experimental: as §1, §2
Escherichia coli IFO 12734 and
as §3, §4, §5

[4] = test system: a species of Streptococcus; test: Effect on intestinal bacteria: number of a sp. of Streptococcus in feces; format: in vivo, ICR mice; conditions: mouse, in vivo, po, 500 mg/kg/day
Experimental: as §9, §6, §7, §8
a species of Streptococcus
TATAC agar 37° C., one day, […]

Row | Structure (SMILES) | MIC [1] [µg/mL] | Number of Pseudomonas aeruginosa after the administration (Pseudomonas aeruginosa) | Number of a sp. of Lactobacillus after the administration [2] | Number of a sp. of Bacterioides after the administration (a species of Bacteroides) | Number of Lactobacillus bifidus after the administration (Lactobacillus bifidus) | Number of Escherichia coli after the administration (Escherichia coli) | MIC [3] [µg/mL] | Number of a sp. of Streptococcus after the administration [4]
1 | COC(=O)Cc1ccc(NC(=O)C2=C(COC(C)=O)CSC3C(NC(=O)CSc4ccncc4)C(=O)N23)cc1 (stereo not shown) [Example 2, N-(4-carbomethoxymethylphenyl)-[7-(4-pyridylthioacetamido)caphalosporanic]amide] | ≥ 50 | < 3.0 Log10 (number of bacteria/g feces) | 9.0 Log10 (number of bacteria/g feces) | 8.7 Log10 (number of bacteria/g feces) | 8.6 Log10 (number of bacteria/g feces) | 6.5 Log10 (number of bacteria/g feces) | ≥ 100 | 6.6 Log10 (number of bacteria/g feces)
2 | COC(=O)CNC(=O)c1ccc(NC(=O)C2=C(COC(C)=O)CSC3C(NC(=O)CC#N)C(=O)N23)cc1 (stereo not shown) [Example 9, N-(4-carbomethoxymethylcarbamoylphenyl)-[7-(2-cyanoacetamido)cephalosporanic]amide] | ≥ 100 | < 3.0 Log10 (number of bacteria/g feces) | 8.9 Log10 (number of bacteria/g feces) | 8.5 Log10 (number of bacteria/g feces) | 8.4 Log10 (number of bacteria/g feces) | 6.5 Log10 (number of bacteria/g feces) | ≥ 100 | 6.7 Log10 (number of bacteria/g feces)
3 | COC(=O)Cc1ccc(NC(=O)C2=C(C)CSC3C(NC(=O)[C@H](N)c4ccccc4)C(=O)N23)cc1 (stereo partly drawn) [Example 4, N-(4-carbomethoxymethylphenyl)-[7-(D-alpha-aminophenylacetamido)desacetoxycephalosporanic]amide] | ≥ 100 | < 3.0 Log10 (number of bacteria/g feces) | 8.9 Log10 (number of bacteria/g feces) | 8.3 Log10 (number of bacteria/g feces) | 8.3 Log10 (number of bacteria/g feces) | 6.6 Log10 (number of bacteria/g feces) | ≥ 100 | 6.8 Log10 (number of bacteria/g feces)
4 | CC(=O)OCC1=C(C(=O)Nc2ccc(C(N)=O)cn2)N2C(=O)C(NC(=O)CC#N)C2SC1 (stereo not shown) [Example 11, N-(nicotinic amido)-[7-(2-cyanoacetamido)cephalosporanic]amide] | ≥ 100 | < 3.0 Log10 (number of bacteria/g feces) | 9.1 Log10 (number of bacteria/g feces) | 8.6 Log10 (number of bacteria/g feces) | 8.2 Log10 (number of bacteria/g feces) | 6.8 Log10 (number of bacteria/g feces) | ≥ 100 | 6.7 Log10 (number of bacteria/g feces)
5 | Cc1nnc(SCC2=C(C(=O)Nc3ccc(C(N)=O)cn3)N3C(=O)C(NC(=O)Cn4cnnn4)C3SC2)s1 (stereo not shown) [Example 18, N-(6-nicotinic amide)-{7-(1-1h-tetrazolylacetamido)-3-[2-(5-methyl-1,3,4-thiadiazolyl)thiomethyl]-3-cepehem-4-carboxylic}amide] | ≥ 12.5 | < 3.0 Log10 (number of bacteria/g feces) | 9.0 Log10 (number of bacteria/g feces) | 8.1 Log10 (number of bacteria/g feces) | 8.4 Log10 (number of bacteria/g feces) | 6.4 Log10 (number of bacteria/g feces) | ≥ 100 | 6.9 Log10 (number of bacteria/g feces)
6 | Cc1nnc(SCC2=C(C(=O)Nc3ccc(C(=O)O)cc3)N3C(=O)C(NC(=O)Cn4cnnn4)C3SC2)s1 (stereo not shown) [Example 12, N-(4-carboxyphenyl)-{7-(1-1H-tetrazolylacetamido)-3-[2-(5-methyl-1,3,4-thiadiaziolyl)thiomethyl]-3-cephem-4-carboxylic}amide] | ≥ 1.56 | < 3.0 Log10 (number of bacteria/g feces) | 8.9 Log10 (number of bacteria/g feces) | 8.8 Log10 (number of bacteria/g feces) | 8.2 Log10 (number of bacteria/g feces) | 6.5 Log10 (number of bacteria/g feces) | ≥ 25 | 6.7 Log10 (number of bacteria/g feces)
7 | COC(=O)Cc1ccc(NC(=O)C2=C(COC(C)=O)CSC3C(NC(=O)CC#N)C(=O)N23)cc1 (stereo not shown) [Example 8, N-(4-carbomethoxymethylphenyl)-7-[(2-cyanoacetamido)cephalosporanic]amide] | ≥ 100 | < 3.0 Log10 (number of bacteria/g feces) | 9.1 Log10 (number of bacteria/g feces) | 8.9 Log10 (number of bacteria/g feces) | 8.4 Log10 (number of bacteria/g feces) | 6.6 Log10 (number of bacteria/g feces) | ≥ 100 | 6.6 Log10 (number of bacteria/g feces)
8 | CC(=O)OCC1=C(C(=O)Nc2ccc(C(N)=O)cn2)N2C(=O)C(NC(=O)CSc3ccncc3)C2SC1 (stereo not shown) [Example 6, N-(nicotinamido)-[7-(4-pyridylthioacetamido)cephalosporanic acid]amide] | ≥ 100 | < 3.0 Log10 (number of bacteria/g feces) | 9.0 Log10 (number of bacteria/g feces) | 8.7 Log10 (number of bacteria/g feces) | 8.6 Log10 (number of bacteria/g feces) | 6.7 Log10 (number of bacteria/g feces) | ≥ 100 | 6.7 Log10 (number of bacteria/g feces)
